The source of these data is PubChem BioAssay (NCI).

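Step 1: Grow cells in 96-well plates. Step 2: Expose to compound for 48 hours at 5 concentrations. Step 3: Interpolate endpoints linearly; if unreached, use highest concentration. GI50: concentration for 50% inhibition of growth. TGI: concentration producing complete growth inhibition.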 Where only a bound is given, the exact number is not on record here.

Test systems include LOX IMVI melanoma; M14 melanoma; MALME-3M melanoma; MDA-MB-435; NCI-H23 lung; NCI/ADR-RES ovarian; SK-MEL-28 melanoma; SN12C renal; SW-620 colon; UACC-62 melanoma.
What all share (assay): growth of human tumour cells (NCI), 48 h

`CC#CC(=O)N1CCC[C@H]1c1nc(-c2ccc(C(=O)Nc3ccccn3)cc2)c2c(N)nccn12`: the GI50 in the assay on LOX IMVI melanoma is 98.5 µM; in the assay on M14 melanoma, 56.5 µM; with MALME-3M melanoma it was 36.2 µM; with MDA-MB-435, 44.1 µM; with NCI-H23 lung it was over 100 µM; in the assay with NCI/ADR-RES ovarian, over 100 µM. For the same compound, the GI50 in the assay on SK-MEL-28 melanoma was 47.3 µM; with SN12C renal, 47.6 µM; with SW-620 colon, over 100 µM; in the assay with UACC-62 melanoma, 34.8 µM. Moreover, the TGI in the assay with LOX IMVI melanoma, in the assay on M14 melanoma, with MALME-3M melanoma, with MDA-MB-435, with NCI-H23 lung and in the assay on NCI/ADR-RES ovarian was over 100 µM each time. In addition, the TGI in the assay with SK-MEL-28 melanoma, in the assay with SN12C renal, in the assay with SW-620 colon and with UACC-62 melanoma was over 100 µM throughout.
Regarding `O=C1/C(=C/c2cccs2)CCC/C1=C\c1cccs1`, the GI50 with LOX IMVI melanoma was over 100 µM; with M14 melanoma it was over 100 µM; with MALME-3M melanoma, over 48.8 µM; with MDA-MB-435, over 100 µM; with NCI-H23 lung it was over 83.8 µM; in the assay on NCI/ADR-RES ovarian, 50.9 µM. In addition, the GI50 with SK-MEL-28 melanoma was over 72.2 µM; with SN12C renal, over 100 µM; with SW-620 colon, over 100 µM; in the assay on UACC-62 melanoma, over 54.3 µM. In addition, the TGI with LOX IMVI melanoma, in the assay with M14 melanoma, in the assay with MALME-3M melanoma, in the assay on MDA-MB-435, with NCI-H23 lung and in the assay with NCI/ADR-RES ovarian was over 100 µM throughout. For the same compound, the TGI in the assay on SK-MEL-28 melanoma, in the assay on SN12C renal, with SW-620 colon and in the assay with UACC-62 melanoma was over 100 µM each time.
Consider `COc1ccccc1-n1c(SCc2cc(OC)c(OC)c(OC)c2)nc2ccc(Cl)cc2c1=O`, for which the GI50 was 5.16 µM in the assay with LOX IMVI melanoma; 2.22 µM with M14 melanoma; 8.76 µM with MALME-3M melanoma; 0.366 µM with MDA-MB-435; 5.9 µM in the assay on NCI-H23 lung; 2.25 µM with NCI/ADR-RES ovarian. Further, the GI50 is 5.76 µM in the assay with SK-MEL-28 melanoma, 7.81 µM in the assay with SN12C renal, 2.59 µM in the assay on SW-620 colon and 3.04 µM in the assay with UACC-62 melanoma. Besides, the TGI is over 100 µM in the assay with LOX IMVI melanoma; over 100 µM in the assay on M14 melanoma; over 100 µM in the assay on MALME-3M melanoma; 25.8 µM in the assay on MDA-MB-435; over 100 µM in the assay with NCI-H23 lung; over 100 µM in the assay with NCI/ADR-RES ovarian. In addition, the TGI in the assay on SK-MEL-28 melanoma, in the assay on SN12C renal, in the assay on SW-620 colon and with UACC-62 melanoma was over 100 µM in each case.
Take `Cn1c(=O)c2[nH]c(COc3ccc(C(C)(C)C)cc3)nc2n(C)c1=O`: the GI50 in the assay with LOX IMVI melanoma is 19.9 µM; in the assay on M14 melanoma, 15 µM; in the assay on MALME-3M melanoma, 18.2 µM; in the assay on MDA-MB-435, 4.09 µM; with NCI-H23 lung it was 5.29 µM; in the assay on NCI/ADR-RES ovarian, 8.04 µM. Besides, the GI50 with SK-MEL-28 melanoma was 28.8 µM; with SN12C renal, 33.4 µM; in the assay with SW-620 colon it was 27 µM; with UACC-62 melanoma it was 5.56 µM. Further, the TGI in the assay with LOX IMVI melanoma is over 100 µM; with M14 melanoma it was 41.4 µM; with MALME-3M melanoma, 58.8 µM; in the assay on MDA-MB-435, 35.4 µM; in the assay with NCI-H23 lung, over 100 µM; in the assay on NCI/ADR-RES ovarian, 60.6 µM. Besides, the TGI in the assay on SK-MEL-28 melanoma is over 100 µM; in the assay on SN12C renal, over 100 µM; in the assay with SW-620 colon it was over 100 µM; with UACC-62 melanoma, 72.4 µM.
Consider `CCS/C(Nc1ccccc1)=C(\C#N)C(=O)Nc1ccc(OC)cc1`, for which the GI50 in the assay with LOX IMVI melanoma is 6.16 µM; with M14 melanoma it was 2.27 µM; with MALME-3M melanoma it was 47.3 µM; with MDA-MB-435, 0.37 µM; in the assay on NCI-H23 lung, 4.9 µM; with NCI/ADR-RES ovarian, 2.62 µM. Moreover, the GI50 in the assay with SK-MEL-28 melanoma is 15.3 µM; in the assay with SN12C renal, 5.91 µM; in the assay with SW-620 colon it was 2.55 µM; in the assay on UACC-62 melanoma, 2.58 µM. Also, the TGI in the assay with LOX IMVI melanoma was over 100 µM; in the assay with M14 melanoma, 87.4 µM; in the assay with MALME-3M melanoma, over 100 µM; in the assay on MDA-MB-435 it was 1.89 µM; in the assay on NCI-H23 lung it was over 100 µM; in the assay with NCI/ADR-RES ovarian, over 100 µM. Also, the TGI in the assay on SK-MEL-28 melanoma, in the assay on SN12C renal, with SW-620 colon and in the assay on UACC-62 melanoma was over 100 µM throughout.
As to `CC(=O)N1CC(F)(F)c2c(Sc3ncc(N4CCC5(CC4)COC[C@H]5N)nc3N)cccc21`, the GI50 with LOX IMVI melanoma was 16.6 µM; in the assay with M14 melanoma, 17.9 µM; with MALME-3M melanoma it was 15.5 µM; in the assay with MDA-MB-435, 31 µM; in the assay with NCI-H23 lung, 3.35 µM; in the assay with NCI/ADR-RES ovarian, 27.6 µM. Moreover, the GI50 in the assay on SK-MEL-28 melanoma was 16.1 µM; with SN12C renal, 25.8 µM; in the assay on SW-620 colon, 16.8 µM; in the assay with UACC-62 melanoma it was 18 µM. Also, the TGI in the assay on LOX IMVI melanoma is 32.1 µM; with M14 melanoma, 37.8 µM; in the assay on MALME-3M melanoma, 31.5 µM; in the assay on MDA-MB-435 it was over 100 µM; with NCI-H23 lung, over 100 µM; in the assay on NCI/ADR-RES ovarian it was over 100 µM. Further, the TGI with SK-MEL-28 melanoma was 30.7 µM; in the assay on SN12C renal, over 100 µM; with SW-620 colon, 54.4 µM; with UACC-62 melanoma it was 36.1 µM.
With `O=C(/C=C\c1ccnc2ccccc12)c1ccc([N+](=O)[O-])cc1`, the GI50 in the assay on LOX IMVI melanoma is 1.83 µM; in the assay on M14 melanoma it was 4.94 µM; in the assay with MALME-3M melanoma, 57.2 µM; in the assay with MDA-MB-435, 2.24 µM; in the assay on NCI-H23 lung it was 5.54 µM; in the assay on NCI/ADR-RES ovarian, 8.68 µM. For the same compound, the GI50 in the assay on SK-MEL-28 melanoma was 20.5 µM; in the assay on SN12C renal, 16.1 µM; with SW-620 colon, 1.99 µM; with UACC-62 melanoma, 12.5 µM. Further, the TGI was 3.75 µM with LOX IMVI melanoma; 19.4 µM in the assay on M14 melanoma; over 100 µM in the assay with MALME-3M melanoma; 6.55 µM in the assay on MDA-MB-435; 59.5 µM with NCI-H23 lung; over 100 µM in the assay on NCI/ADR-RES ovarian. Also, the TGI was over 83.2 µM in the assay on SK-MEL-28 melanoma, over 64.2 µM in the assay on SN12C renal, 4.79 µM with SW-620 colon and over 86.3 µM in the assay on UACC-62 melanoma.
